Data taken from the supplement of paper PMC10307832.

Key:
Assay in all cases: relative viability (nuclei count vs DMSO), 5 days (fraction); higher = more cells survive
[1] = compound: O=C(O)C(Cc1ccccc1[N+](=O)[O-])=NNc1nc(-c2ccc(Cl)c(Cl)c2)cs1 (mixture of isomers) [4EGI-1] + Nc1ncn([C@H]2C[C@H](O)[C@@H](CO)O2)c(=O)n1 [Decitabine] (partner 2 µM)
Method in brief: (§1)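 Relative viability divides the nuclei count in treated wells by that in vehicle wells. Lung cancer cell lines were seeded in 1536-well plates, dosed by pin tool the next day, and fixed and stained after 5 days in one step with final 0.05% Triton X-100, 1% formaldehyde and 1 ug/ml Hoechst. Dosing was a single drug or a fixed anchor-drug dose plus five library-drug doses (not always all listed) in √10 steps, and values are medians of duplicate plates imaged at 4×.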

[2] = compound: CN1CCN(CC1)C2=CC(=C(C=C2)NC3=NC=C4C(=N3)N(C5=CC=CC=C5C(=O)N4C)C)OC [XMD8-85] + CCNC(=O)c1noc(-c2cc(C(C)C)c(O)cc2O)c1-c1ccc(CN2CCOCC2)cc1 [Luminespib] (partner 0.01 µM)
Method in brief: as §1

[3] = compound: O=C(O)C(Cc1ccccc1[N+](=O)[O-])=NNc1nc(-c2ccc(Cl)c(Cl)c2)cs1 (mixture of isomers) [4EGI-1] + C[C@]1(O)C[C@@H](c2nc(-c3ccc4ccc(-c5ccccc5)nc4c3)c3c(N)nccn32)C1 [Linsitinib] (partner 1 µM)
Method in brief: as §1

[4] = compound: O=C(O)C(Cc1ccccc1[N+](=O)[O-])=NNc1nc(-c2ccc(Cl)c(Cl)c2)cs1 (mixture of isomers) [4EGI-1] + CC(=O)Nc1cccc(-n2c(=O)n(C3CC3)c(=O)c3c(Nc4ccc(I)cc4F)n(C)c(=O)c(C)c32)c1 [Trametinib] (partner 0.02 µM)
Method in brief: as §1

Cell Line	relative viability ([1]; first compound 0.5 µM)	relative viability ([1]; first compound 1.581 µM)	relative viability ([1]; first compound 5 µM)	relative viability ([1]; first compound 15.81 µM)	relative viability ([1]; first compound 50 µM)	relative viability ([2]; first compound 0.08 µM)	relative viability ([2]; first compound 0.253 µM)	relative viability ([2]; first compound 0.8 µM)	relative viability ([2]; first compound 2.53 µM)	relative viability ([2]; first compound 8 µM)	relative viability ([3]; first compound 0.5 µM)	relative viability ([3]; first compound 1.581 µM)	relative viability ([3]; first compound 5 µM)	relative viability ([3]; first compound 15.81 µM)	relative viability ([3]; first compound 50 µM)	relative viability ([4]; first compound 0.5 µM)	relative viability ([4]; first compound 1.581 µM)	relative viability ([4]; first compound 5 µM)	relative viability ([4]; first compound 15.81 µM)	relative viability ([4]; first compound 50 µM)
NCI-H520	0.568	0.499	0.499	0.562	0.25	0.235	0.257	0.192	0.202	0.201	1.19	0.984	1.01	0.75	0.558	0.947	0.83	0.749	0.724	0.145
NCI-H647	0.433	0.309	0.391	0.218	0.155	0.151	0.208	0.169	0.126	0.132	1.17	1.12	1.22	1.07	0.202	0.585	0.493	0.475	0.384	0.129
201T	0.871	0.859	0.886	0.826	0.615	1.06	1.1	1.02	1.03	0.936	1.04	0.922	1.03	0.913	0.899	0.714	0.705	0.742	0.744	0.636
COR-L 105	0.681	0.558	0.587	0.472	0.523	0.99	0.842	0.645	–	0.272	1.04	0.85	0.999	0.988	0.675	0.462	0.444	0.44	0.401	0.394
IA-LM	–	–	–	–	–	–	–	–	–	–	0.536	0.492	0.649	0.251	0.163	–	–	–	–	–
LCLC-97TM1	0.278	–	0.23	0.248	0.124	0.715	0.87	0.833	0.813	0.85	0.161	–	0.203	0.198	0.165	0.212	–	0.188	0.197	0.127
NCI-H1944	0.502	–	0.427	0.404	0.344	0.658	0.838	0.751	0.491	0.507	1.39	–	1.21	1.1	1.13	0.481	–	0.354	0.314	0.334
EPLC-272H	0.45	–	0.359	0.31	0.305	0.266	0.373	0.629	0.389	0.186	1.31	0.938	1.19	1.21	1.24	0.308	–	0.339	0.249	0.226
NCI-H2342	0.757	0.704	0.742	0.737	0.731	0.649	0.719	0.74	0.809	0.887	–	–	–	–	–	0.894	0.802	0.881	0.98	0.906
NCI-H1648	0.462	0.501	0.518	0.537	0.416	–	–	–	–	–	–	–	–	–	–	0.574	0.506	0.471	0.526	0.304
NCI-H1437	0.58	0.593	0.544	0.435	0.221	1.15	1.19	1.15	1.07	0.813	1.16	1	0.919	0.241	0.152	0.608	0.537	0.549	0.337	0.207
LU99A	0.879	0.699	0.83	0.851	0.508	0.228	0.252	0.206	0.309	0.193	0.593	–	0.651	0.524	0.401	0.516	0.436	0.583	0.538	0.307
NCI-H1993	0.74	0.548	0.588	0.619	0.462	0.79	0.837	0.929	0.928	0.746	0.754	0.757	0.737	0.699	0.706	0.654	0.49	0.504	0.607	0.432
NCI-H838	0.469	0.509	0.389	0.312	0.238	0.234	0.225	0.29	0.389	0.189	1.19	–	1.02	0.854	0.434	0.694	0.483	0.512	0.506	0.141
NCI-H322M	0.692	–	0.764	0.636	0.727	0.609	0.823	0.797	0.927	0.68	0.885	0.929	0.947	0.798	0.891	0.525	–	0.476	0.514	0.452
NCI-H3122	0.452	0.487	0.454	0.521	0.351	0.117	–	0.115	0.106	0.102	1.04	0.956	0.943	1.01	0.567	0.235	0.246	0.233	0.232	0.305
NCI-H1703	–	–	–	–	–	–	–	–	–	–	1.4	0.632	1.06	1.27	0.994	–	–	–	–	–
HCC-15	0.89	0.723	0.675	0.527	0.217	0.481	0.479	0.295	0.336	0.302	0.884	0.836	0.865	0.728	0.432	0.405	0.378	0.392	0.375	0.281
ChaGo-K-1	0.538	0.511	0.523	0.479	0.352	0.603	0.577	0.71	0.585	0.501	–	–	–	–	–	0.911	0.845	0.896	0.942	0.592
SW 900	0.447	0.406	0.464	0.396	0.283	0.164	0.195	0.175	0.165	0.152	–	–	–	–	–	1.11	0.8	0.773	0.584	0.173
NCI-H727	0.731	0.854	0.858	0.808	0.606	0.431	0.527	0.359	0.322	0.344	0.337	0.286	0.268	0.229	0.301	0.365	0.398	0.377	0.386	0.376

Cell Line	relative viability ([1]; first compound 0.5 µM)	relative viability ([1]; first compound 1.581 µM)	relative viability ([1]; first compound 5 µM)	relative viability ([1]; first compound 15.81 µM)	relative viability ([1]; first compound 50 µM)	relative viability ([2]; first compound 0.08 µM)	relative viability ([2]; first compound 0.253 µM)	relative viability ([2]; first compound 0.8 µM)	relative viability ([2]; first compound 2.53 µM)	relative viability ([2]; first compound 8 µM)	relative viability ([3]; first compound 0.5 µM)	relative viability ([3]; first compound 1.581 µM)	relative viability ([3]; first compound 5 µM)	relative viability ([3]; first compound 15.81 µM)	relative viability ([3]; first compound 50 µM)	relative viability ([4]; first compound 0.5 µM)	relative viability ([4]; first compound 1.581 µM)	relative viability ([4]; first compound 5 µM)	relative viability ([4]; first compound 15.81 µM)	relative viability ([4]; first compound 50 µM)
NCI-H596	1.01	1.11	1.16	0.942	0.569	0.885	1.02	–	0.875	0.605	1.06	0.818	1.09	1.02	0.815	1.09	0.83	0.918	0.661	0.545
NCI-H2347	0.68	0.649	0.569	0.586	0.543	0.545	0.405	0.243	0.208	0.306	1.08	0.805	0.96	0.944	0.87	0.304	0.27	0.309	0.298	0.302
NCI-H2126	0.611	0.65	0.617	0.472	0.488	0.948	1	0.917	1.05	0.891	0.734	0.693	0.717	0.652	0.673	0.552	0.553	0.506	0.463	0.384
HCC-78	0.768	–	0.729	0.621	0.725	–	–	–	–	–	0.612	0.373	0.453	0.484	0.479	1.18	–	0.733	0.674	0.788
HARA	0.446	0.511	0.692	0.366	0.167	0.927	0.726	0.749	0.528	0.387	0.982	0.955	1.05	0.973	0.209	0.882	0.632	0.944	0.539	0.211
A-427	0.575	–	0.592	0.513	0.336	1.06	1.08	1.25	1.1	0.669	1.09	0.93	1.03	1.07	0.618	0.891	–	0.774	0.742	0.384
NCI-H441	0.262	0.258	0.251	0.244	0.18	0.299	0.333	0.4	0.356	0.231	0.77	0.492	0.798	0.469	0.196	0.613	0.471	0.449	0.428	0.127
NCI-H2228	–	–	–	–	–	0.154	0.209	0.114	0.188	0.185	0.778	0.783	0.734	0.721	0.166	0.496	0.499	0.575	0.456	0.197
NCI-H522	0.666	0.63	0.693	0.679	0.63	1.15	1.31	0.92	1.06	0.97	–	–	–	–	–	0.787	0.681	0.847	0.859	0.677
EBC-1	–	–	–	–	–	–	–	–	–	–	0.992	1	0.995	0.652	1.04	–	–	–	–	–
HCC-366	0.364	0.29	0.549	0.256	0.0833	–	–	–	–	–	0.791	0.697	0.741	0.772	0.382	0.454	0.272	0.429	0.262	0.0891
NCI-H1650	0.37	–	0.421	0.256	0.293	0.203	0.216	0.199	0.173	0.173	–	–	–	–	–	0.658	–	0.643	0.275	0.182
CAL-12T	–	–	–	–	–	0.315	0.652	0.339	0.333	0.216	0.87	0.598	0.922	0.779	0.859	0.348	–	0.358	0.281	0.191
NCI-H2170	0.502	0.449	0.459	0.441	0.282	0.887	0.609	0.931	0.894	0.474	–	–	–	–	–	0.956	0.773	0.876	0.866	0.645
NCI-H1299	–	–	–	–	–	–	–	–	–	–	0.944	0.931	0.994	1.05	0.849	–	–	–	–	–
ABC-1	1.28	–	1.12	1.23	0.482	–	–	0.793	0.703	0.373	0.977	0.863	0.806	0.68	0.419	–	–	–	–	–
NCI-H1623	–	–	–	–	–	0.489	0.418	0.58	0.42	0.489	–	–	–	–	–	–	–	–	–	–
Calu-6	–	–	–	–	–	–	–	–	–	–	1.11	0.729	0.995	0.851	0.9	–	–	–	–	–
NCI-H1563	–	–	–	–	–	0.608	0.488	0.505	0.536	0.567	1.31	0.979	1.29	1.22	0.883	–	–	–	–	–
A549	0.345	0.377	0.259	0.177	0.0347	–	–	–	–	–	0.825	–	0.573	0.579	0.611	–	–	–	–	–
